In test [1] the target is T1, Ephrin type-B receptor 4 (Homo sapiens, UniProt P54760).
T1 sequence (P54760 whole entry): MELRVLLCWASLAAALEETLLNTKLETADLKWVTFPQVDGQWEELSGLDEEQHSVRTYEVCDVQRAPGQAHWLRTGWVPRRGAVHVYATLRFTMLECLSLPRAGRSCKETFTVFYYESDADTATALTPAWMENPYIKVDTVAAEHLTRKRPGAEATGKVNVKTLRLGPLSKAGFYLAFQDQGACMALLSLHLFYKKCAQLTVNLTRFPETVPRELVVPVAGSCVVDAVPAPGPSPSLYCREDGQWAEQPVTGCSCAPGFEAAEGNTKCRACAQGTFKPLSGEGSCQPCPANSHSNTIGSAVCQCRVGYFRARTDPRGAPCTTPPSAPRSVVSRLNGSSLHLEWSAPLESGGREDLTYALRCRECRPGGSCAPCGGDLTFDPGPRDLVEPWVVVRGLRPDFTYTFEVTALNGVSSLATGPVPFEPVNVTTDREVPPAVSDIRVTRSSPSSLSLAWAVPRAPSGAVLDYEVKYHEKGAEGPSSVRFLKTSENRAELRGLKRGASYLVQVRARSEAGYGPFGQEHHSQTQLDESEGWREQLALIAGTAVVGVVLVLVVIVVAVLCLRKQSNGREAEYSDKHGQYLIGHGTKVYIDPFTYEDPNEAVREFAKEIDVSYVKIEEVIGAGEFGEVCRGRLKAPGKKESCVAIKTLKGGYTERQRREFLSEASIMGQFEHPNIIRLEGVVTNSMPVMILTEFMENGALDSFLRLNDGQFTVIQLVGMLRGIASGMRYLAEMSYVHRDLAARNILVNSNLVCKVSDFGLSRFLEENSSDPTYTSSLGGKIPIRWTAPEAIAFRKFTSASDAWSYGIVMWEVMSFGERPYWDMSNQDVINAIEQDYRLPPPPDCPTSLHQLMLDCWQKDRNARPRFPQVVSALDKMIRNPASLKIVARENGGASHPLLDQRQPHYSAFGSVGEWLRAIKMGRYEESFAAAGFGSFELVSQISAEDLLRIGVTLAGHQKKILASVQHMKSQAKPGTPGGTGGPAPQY
Nature of the test: Displacement of ephrin-B1-Fc from EphB4 receptor Fc ectodomain (unknown origin) after 1 hr by ELISA. In general terms: In an ELISA, binding on a coated surface is turned into a signal by an enzyme label.

The target in test [2] is T2, Ephrin type-B receptor 1 (Homo sapiens, UniProt P54762).
T2 sequence (P54762 whole entry): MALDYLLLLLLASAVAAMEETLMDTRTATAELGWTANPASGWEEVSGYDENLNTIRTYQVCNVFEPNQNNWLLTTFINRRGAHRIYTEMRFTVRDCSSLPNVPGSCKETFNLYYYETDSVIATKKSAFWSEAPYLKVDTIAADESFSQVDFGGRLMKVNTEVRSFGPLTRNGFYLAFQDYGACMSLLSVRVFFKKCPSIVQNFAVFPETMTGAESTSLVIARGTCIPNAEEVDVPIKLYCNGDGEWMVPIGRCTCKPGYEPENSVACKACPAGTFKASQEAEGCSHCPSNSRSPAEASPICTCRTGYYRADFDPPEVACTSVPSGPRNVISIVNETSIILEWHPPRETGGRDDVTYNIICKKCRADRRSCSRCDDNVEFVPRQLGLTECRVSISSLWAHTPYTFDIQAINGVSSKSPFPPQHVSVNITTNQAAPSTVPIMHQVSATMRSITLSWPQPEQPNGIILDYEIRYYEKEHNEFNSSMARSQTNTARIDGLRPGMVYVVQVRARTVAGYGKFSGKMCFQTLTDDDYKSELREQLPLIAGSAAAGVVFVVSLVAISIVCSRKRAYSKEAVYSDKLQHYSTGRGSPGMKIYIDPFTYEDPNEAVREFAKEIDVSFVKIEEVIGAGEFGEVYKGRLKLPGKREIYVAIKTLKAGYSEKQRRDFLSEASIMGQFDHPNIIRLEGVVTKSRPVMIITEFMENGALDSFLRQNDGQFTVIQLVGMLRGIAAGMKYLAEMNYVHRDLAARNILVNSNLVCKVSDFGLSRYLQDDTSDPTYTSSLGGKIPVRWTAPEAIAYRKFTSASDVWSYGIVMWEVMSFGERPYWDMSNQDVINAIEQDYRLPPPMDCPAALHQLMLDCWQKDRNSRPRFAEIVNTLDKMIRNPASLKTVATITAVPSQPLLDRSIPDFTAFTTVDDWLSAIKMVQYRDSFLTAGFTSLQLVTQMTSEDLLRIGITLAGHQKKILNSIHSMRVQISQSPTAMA
Nature of the test: Displacement of ephrin-B1-Fc from EphB1 receptor Fc ectodomain (unknown origin) after 1 hr by ELISA.

Test [3] deals with T3, Ephrin type-B receptor 6 (Homo sapiens, UniProt O15197).
T3 sequence (O15197 whole entry): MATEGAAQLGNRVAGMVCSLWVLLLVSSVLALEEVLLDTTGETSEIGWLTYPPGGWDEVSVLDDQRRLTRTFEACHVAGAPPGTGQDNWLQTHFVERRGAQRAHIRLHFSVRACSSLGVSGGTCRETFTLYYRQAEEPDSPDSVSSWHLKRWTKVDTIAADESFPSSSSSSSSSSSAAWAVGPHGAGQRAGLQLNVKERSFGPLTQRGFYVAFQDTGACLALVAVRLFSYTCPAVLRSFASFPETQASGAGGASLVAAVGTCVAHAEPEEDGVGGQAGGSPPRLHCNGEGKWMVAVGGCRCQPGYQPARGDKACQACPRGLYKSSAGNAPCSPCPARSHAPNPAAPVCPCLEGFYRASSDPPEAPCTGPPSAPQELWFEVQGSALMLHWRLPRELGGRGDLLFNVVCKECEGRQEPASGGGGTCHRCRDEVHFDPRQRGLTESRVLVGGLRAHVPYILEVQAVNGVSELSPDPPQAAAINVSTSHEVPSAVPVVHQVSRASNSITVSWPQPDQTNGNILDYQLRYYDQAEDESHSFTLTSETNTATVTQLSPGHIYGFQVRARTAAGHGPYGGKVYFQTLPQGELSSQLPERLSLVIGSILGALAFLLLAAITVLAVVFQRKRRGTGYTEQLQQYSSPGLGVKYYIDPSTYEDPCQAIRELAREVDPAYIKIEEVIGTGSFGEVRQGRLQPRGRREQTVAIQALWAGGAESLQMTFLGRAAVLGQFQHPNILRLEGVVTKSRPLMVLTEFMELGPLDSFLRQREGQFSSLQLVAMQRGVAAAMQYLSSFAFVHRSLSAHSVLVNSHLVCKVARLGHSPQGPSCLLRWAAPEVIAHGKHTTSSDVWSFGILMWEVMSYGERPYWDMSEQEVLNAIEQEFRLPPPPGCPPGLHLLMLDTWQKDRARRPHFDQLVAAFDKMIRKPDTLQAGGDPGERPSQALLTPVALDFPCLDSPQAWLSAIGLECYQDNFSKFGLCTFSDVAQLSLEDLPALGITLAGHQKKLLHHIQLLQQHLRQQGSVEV
The test is described as follows: Displacement of ephrin-B1-Fc from EphB6 receptor Fc ectodomain (unknown origin) after 1 hr by ELISA.

In test [4] the target is Ephrin type-A receptor 7 (Homo sapiens, UniProt Q15375). Nature of the test: Displacement of ephrin-A1-Fc from EphA7 receptor Fc ectodomain (unknown origin) after 1 hr by ELISA.

Molecules are shown by their SMILES.

Sequence of Ephrin type-A receptor 7 (Q15375 whole entry, the tested form may be a part): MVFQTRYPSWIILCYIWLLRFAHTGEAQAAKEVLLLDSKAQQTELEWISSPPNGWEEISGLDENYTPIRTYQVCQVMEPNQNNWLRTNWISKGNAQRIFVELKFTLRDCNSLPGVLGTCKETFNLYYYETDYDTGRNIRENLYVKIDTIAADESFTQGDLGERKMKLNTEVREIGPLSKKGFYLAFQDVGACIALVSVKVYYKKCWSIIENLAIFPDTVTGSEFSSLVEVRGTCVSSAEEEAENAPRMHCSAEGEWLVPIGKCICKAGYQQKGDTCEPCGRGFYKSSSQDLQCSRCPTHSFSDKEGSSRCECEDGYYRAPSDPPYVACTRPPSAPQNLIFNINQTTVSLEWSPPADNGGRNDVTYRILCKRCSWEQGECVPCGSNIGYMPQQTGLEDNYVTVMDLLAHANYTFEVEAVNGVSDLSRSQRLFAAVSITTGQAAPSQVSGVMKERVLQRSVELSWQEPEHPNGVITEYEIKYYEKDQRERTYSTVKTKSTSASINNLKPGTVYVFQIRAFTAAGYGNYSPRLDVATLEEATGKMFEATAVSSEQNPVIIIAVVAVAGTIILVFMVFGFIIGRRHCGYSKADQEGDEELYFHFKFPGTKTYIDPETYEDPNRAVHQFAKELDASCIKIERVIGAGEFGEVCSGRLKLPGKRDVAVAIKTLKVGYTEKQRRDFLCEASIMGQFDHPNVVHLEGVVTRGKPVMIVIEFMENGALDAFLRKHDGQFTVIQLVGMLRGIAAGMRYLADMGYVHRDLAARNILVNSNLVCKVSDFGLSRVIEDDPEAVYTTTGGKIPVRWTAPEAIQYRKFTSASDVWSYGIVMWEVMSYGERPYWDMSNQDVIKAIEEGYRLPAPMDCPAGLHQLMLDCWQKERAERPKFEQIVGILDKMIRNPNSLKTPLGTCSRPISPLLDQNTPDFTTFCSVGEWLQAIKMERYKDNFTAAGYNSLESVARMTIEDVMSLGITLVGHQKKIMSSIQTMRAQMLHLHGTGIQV

Broadly, the IC50 is the midpoint of a concentration-inhibition curve. Read a low IC50 as greater potency in that assay. On to `C[C@H](CCC(=O)N[C@@H](Cc1c[nH]c2ccccc12)C(=O)O)[C@H]1CC[C@H]2[C@@H]3CC[C@@H]4C[C@H](O)CC[C@]4(C)[C@H]3CC[C@]12C`, for which the IC50 was determined as 4.4 µM in test [1], 3.8 µM in test [2], 5.8 µM in test [3] and 2100 nM in test [4].

For the origin of these results see ChEMBL document CHEMBL2321799 (J Med Chem, 2013).
